Two molecules from patent US9795566B2, “Imidazole compound and liposome containing same” (FUJIFILM Corporation, priority 2014, dated 2017) can be followed below.

The data set is described as follows: Stability of the compounds and of the liposomes (statement in words). In kind it is physicochemical. The conditions noted are these: compound itself.

As for `CCCCCCCCCCCCCCCCN(CCCCCCCCCCCCCCCC)CCOCCOC(=O)C(N)Cc1cnc[nH]1` (centres unmarked) [Example 1], the “stability of the compound” value is on record as “very stable”.
With `CCCCCCCCCCCCCCCCN(CCCCCCCCCCCCCCCC)C(=O)COCCOCCOCCNC(=O)C(N)Cc1cnc[nH]1` (centres unmarked) [Example 3], the “stability of the compound” value is “very stable”.
